The results in this text go back to patent US12540131B2 (Merck Sharp & Dohme LLC, priority 2019, dated 2026).

The target of the experiment is GST tagged truncated human mutant G2019S LRRK2 (Homo sapiens (Human), UniProt Q5S007, G2019S). The experiment can be described thus: LRRK2 Km ATP LanthaScreen Assay. The following applies: G2019S LRRK2, 134 μM ATP (Km ATP), mean values. Type of experiment: biochemical. In short, it runs like this: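 Enzyme (GST-tagged, truncated) was preincubated with compound for 15 min at RT in 50 mM Tris pH 8.5, 10 mM MgCl2, 0.01% Brij-35, 1 mM EGTA, 2 mM DTT and 0.05 mM orthovanadate. Fluorescein-LRRKtide and 134 μM ATP (Km) were then added for 90 min. EDTA and Tb-anti-pERM antibody stopped the reaction; the TR-FRET 520/495 ratio gave 4-parameter IC50s, reported as mean pIC50.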
GST tagged truncated human mutant G2019S LRRK2, sequence (Q5S007 970-2527 G2019S): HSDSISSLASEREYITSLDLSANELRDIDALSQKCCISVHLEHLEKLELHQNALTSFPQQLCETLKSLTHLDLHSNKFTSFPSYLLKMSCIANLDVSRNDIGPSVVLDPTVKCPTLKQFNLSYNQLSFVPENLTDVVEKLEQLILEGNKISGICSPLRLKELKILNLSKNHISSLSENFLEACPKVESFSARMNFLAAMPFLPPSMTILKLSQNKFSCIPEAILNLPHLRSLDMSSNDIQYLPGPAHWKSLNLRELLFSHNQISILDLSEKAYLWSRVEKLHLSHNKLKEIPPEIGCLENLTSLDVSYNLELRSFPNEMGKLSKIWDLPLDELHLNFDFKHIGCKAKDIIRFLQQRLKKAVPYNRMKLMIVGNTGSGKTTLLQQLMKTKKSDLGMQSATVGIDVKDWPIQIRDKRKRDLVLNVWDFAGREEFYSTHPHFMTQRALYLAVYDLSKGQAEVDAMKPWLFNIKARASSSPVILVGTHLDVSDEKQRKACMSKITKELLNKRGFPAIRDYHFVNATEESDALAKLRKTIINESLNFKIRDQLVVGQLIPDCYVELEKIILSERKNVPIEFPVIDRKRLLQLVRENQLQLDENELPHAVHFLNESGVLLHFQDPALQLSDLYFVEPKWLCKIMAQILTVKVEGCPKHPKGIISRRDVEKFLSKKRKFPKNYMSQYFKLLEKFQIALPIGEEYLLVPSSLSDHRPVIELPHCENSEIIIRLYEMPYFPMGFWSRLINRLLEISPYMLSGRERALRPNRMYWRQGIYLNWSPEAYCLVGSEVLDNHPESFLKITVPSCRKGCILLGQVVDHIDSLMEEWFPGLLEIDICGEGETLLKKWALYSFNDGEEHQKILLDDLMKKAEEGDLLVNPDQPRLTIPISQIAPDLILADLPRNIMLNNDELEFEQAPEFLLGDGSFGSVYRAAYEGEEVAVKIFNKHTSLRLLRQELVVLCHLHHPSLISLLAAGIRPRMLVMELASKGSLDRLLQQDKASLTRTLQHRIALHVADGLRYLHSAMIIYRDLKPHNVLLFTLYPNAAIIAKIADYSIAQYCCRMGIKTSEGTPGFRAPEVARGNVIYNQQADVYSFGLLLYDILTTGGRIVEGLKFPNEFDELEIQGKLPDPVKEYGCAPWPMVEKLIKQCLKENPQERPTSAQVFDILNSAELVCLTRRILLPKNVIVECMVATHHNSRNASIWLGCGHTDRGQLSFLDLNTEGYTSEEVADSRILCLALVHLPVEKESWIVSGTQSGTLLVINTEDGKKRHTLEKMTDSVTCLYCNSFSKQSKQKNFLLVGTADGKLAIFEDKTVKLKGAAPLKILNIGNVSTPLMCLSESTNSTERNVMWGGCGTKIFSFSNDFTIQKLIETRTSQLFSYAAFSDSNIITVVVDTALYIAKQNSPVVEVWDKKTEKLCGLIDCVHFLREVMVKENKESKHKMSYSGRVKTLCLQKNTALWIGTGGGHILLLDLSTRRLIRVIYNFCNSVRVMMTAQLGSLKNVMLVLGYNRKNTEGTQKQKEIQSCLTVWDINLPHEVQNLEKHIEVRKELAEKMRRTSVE
`Cc1cc2cnc(Nc3cnn(C4CC4)c3Cl)nc2cc1[C@@H]1CCN([C@@]2(C)COC[C@H]2O)C[C@H]1F` (single isomer, unassigned) [Ex-4.148, (3S,4S)(3S,4S) or (3S,4S)(3R,4R) or (3R,4R)(3S,4S) or (3R,4R)(3R,4R) 4-(4-{2-[(5-chloro-1-cyclopropyl-1H-pyrazol-4-yl)amino]-6-methylquinazolin-7-yl}-3-fluoropiperidin-1-yl)-4-methyloxolan-3-ol]: the “LRRK2 pIC50” value is over 9.20. With `Cc1cc2cnc(Nc3cnn(C4CC4)c3Cl)nc2cc1[C@@H]1CCN([C@]2(C)COC[C@@H]2O)C[C@H]1F` (single isomer, unassigned) [Ex-4.149, (3S,4S)(3S,4S) or (3S,4S)(3R,4R) or (3R,4R)(3S,4S) or (3R,4R)(3R,4R) 4-(4-{2-[(5-chloro-1-cyclopropyl-1H-pyrazol-4-yl)amino]-6-methylquinazolin-7-yl}-3-fluoropiperidin-1-yl)-4-methyloxolan-3-ol] the figure was over 9.20. In the case of `Cc1cc2cnc(Nc3cnn(C4CC4)c3Cl)nc2cc1[C@@H]1CCN([C@@H]2COC[C@@H]2O)C[C@H]1F` (single isomer, unassigned) [Ex-4.150, (3S,4S)(3S,4S) or (3S,4S)(3R,4R) or (3R,4R)(3S,4S) or (3R,4R)(3R,4R) 4-(4-{2-[(5-chloro-1-cyclopropyl-1H-pyrazol-4-yl)amino]-6-methylquinazolin-7-yl}-3-fluoropiperidin-1-yl)oxolan-3-ol], the “LRRK2 pIC50” value is listed as over 9.20.

On to `O[C@H]1COC[C@H]1N1CCC(c2cc3nc(Nc4cnn(C56CC(C5)C6)c4)ncc3cc2Cl)CC1` (single isomer, unassigned) [Ex-4.151, (3S,4S) or (3R,4R) 4-[4-(2-{[1-(bicyclo[1.1.1]pentan-1-yl)-1H-pyrazol-4-yl]amino}-6-chloroquinazolin-7-yl)piperidin-1-yl]oxolan-3-ol], for which the “LRRK2 pIC50” value was found to be 8.98. For `O[C@@H]1COC[C@@H]1N1CCC(c2cc3nc(Nc4cnn(C56CC(C5)C6)c4)ncc3cc2Cl)CC1` (single isomer, unassigned) [Ex-4.152, (3S,4S) or (3R,4R) 4-[4-(2-{[1-(bicyclo[1.1.1]pentan-1-yl)-1H-pyrazol-4-yl]amino}-6-chloroquinazolin-7-yl)piperidin-1-yl]oxolan-3-ol], the “LRRK2 pIC50” value was over 9.20.

For the compound `O[C@@H]1COC[C@@H]1N1CC[C@@H](c2cc3nc(Nc4cnn(C56CC(C5)C6)c4)ncc3cc2Cl)[C@H](F)C1` (single isomer, unassigned) [Ex-4.153, (3S,4S)(3S,4S) or (3S,4S)(3R,4R) or (3R,4R)(3S,4S) or (3R,4R)(3R,4R) 4-[4-(2-{[1-(bicyclo[1.1.1]pentan-1-yl)-1H-pyrazol-4-yl]amino}-6-chloroquinazolin-7-yl)-3-fluoropiperidin-1-yl]oxolan-3-ol], the “LRRK2 pIC50” value is over 9.20. With `O[C@H]1COC[C@H]1N1CC[C@@H](c2cc3nc(Nc4cnn(C56CC(C5)C6)c4)ncc3cc2Cl)[C@H](F)C1` (single isomer, unassigned) [Ex-4.154, (3S,4S)(3S,4S) or (3S,4S)(3R,4R) or (3R,4R)(3S,4S) or (3R,4R)(3R,4R) 4-[4-(2-{[1-(bicyclo[1.1.1]pentan-1-yl)-1H-pyrazol-4-yl]amino}-6-chloroquinazolin-7-yl)-3-fluoropiperidin-1-yl]oxolan-3-ol] the figure was 9.06. As for `O[C@@H]1COC[C@@H]1N1CC[C@H](c2cc3nc(Nc4cnn(C56CC(C5)C6)c4)ncc3cc2Cl)[C@@H](F)C1` (single isomer, unassigned) [Ex-4.155, (3S,4S)(3S,4S) or (3S,4S)(3R,4R) or (3R,4R)(3S,4S) or (3R,4R)(3R,4R) 4-[4-(2-{[1-(bicyclo[1.1.1]pentan-1-yl)-1H-pyrazol-4-yl]amino}-6-chloroquinazolin-7-yl)-3-fluoropiperidin-1-yl]oxolan-3-ol], the “LRRK2 pIC50” value is over 9.20.

As for `O[C@H]1COC[C@H]1N1CC[C@H](c2cc3nc(Nc4cnn(C56CC(C5)C6)c4)ncc3cc2Cl)[C@@H](F)C1` (single isomer, unassigned) [Ex-4.156, (3S,4S)(3S,4S) or (3S,4S)(3R,4R) or (3R,4R)(3S,4S) or (3R,4R)(3R,4R) 4-[4-(2-{[1-(bicyclo[1.1.1]pentan-1-yl)-1H-pyrazol-4-yl]amino}-6-chloroquinazolin-7-yl)-3-fluoropiperidin-1-yl]oxolan-3-ol], the “LRRK2 pIC50” value was over 9.20. On to `OC1CCCC1N1CC[C@@H](c2cc3nc(Nc4cnn(C5CC5)c4Cl)ncc3cc2Cl)[C@H](F)C1` (single isomer, unassigned) [Ex-4.157, (1S,2R)(3S,4S) or (1R,2S)(3S,4S) or (1R,2R)(3S,4S) or (1S,2S)(3S,4S) or (1S,2R)(3R,4R) or (1R,2S)(3R,4R) or (1R,2R)(3R,4R) or (1S,2S)(3R,4R) 2-(4-{6-chloro-2-[(5-chloro-1-cyclopropyl-1H-pyrazol-4-yl)amino]quinazolin-7-yl}-3-fluoropiperidin-1-yl)cyclopentan-1-ol], for which the “LRRK2 pIC50” value came out at 8.38. With `OC1CCCC1N1CC[C@H](c2cc3nc(Nc4cnn(C5CC5)c4Cl)ncc3cc2Cl)[C@@H](F)C1` (single isomer, unassigned) [Ex-4.158, (1S,2R)(3S,4S) or (1R,2S)(3S,4S) or (1R,2R)(3S,4S) or (1S,2S)(3S,4S) or (1S,2R)(3R,4R) or (1R,2S)(3R,4R) or (1R,2R)(3R,4R) or (1S,2S)(3R,4R) 2-(4-{6-chloro-2-[(5-chloro-1-cyclopropyl-1H-pyrazol-4-yl)amino]quinazolin-7-yl}-3-fluoropiperidin-1-yl)cyclopentan-1-ol] the figure was 8.99; with `Cc1c(Nc2ncc3cc(Cl)c([C@@H]4CCN(C5CCCC5O)C[C@H]4F)cc3n2)cnn1C1CC1` (single isomer, unassigned) [Ex-4.159, (1S,2R)(3S,4S) or (1R,2S)(3S,4S) or (1R,2R)(3S,4S) or (1S,2S)(3S,4S) or (1S,2R)(3R,4R) or (1R,2S)(3R,4R) or (1R,2R)(3R,4R) or (1S,2S)(3R,4R) 2-(4-{6-chloro-2-[(1-cyclopropyl-5-methyl-1H-pyrazol-4-yl)amino]quinazolin-7-yl}-3-fluoropiperidin-1-yl)cyclopentan-1-ol], over 9.20. Take `Cc1c(Nc2ncc3cc(Cl)c([C@H]4CCN(C5CCCC5O)C[C@@H]4F)cc3n2)cnn1C1CC1` (single isomer, unassigned) [Ex-4.160, (1S,2R)(3S,4S) or (1R,2S)(3S,4S) or (1R,2R)(3S,4S) or (1S,2S)(3S,4S) or (1S,2R)(3R,4R) or (1R,2S)(3R,4R) or (1R,2R)(3R,4R) or (1S,2S)(3R,4R) 2-(4-{6-chloro-2-[(1-cyclopropyl-5-methyl-1H-pyrazol-4-yl)amino]quinazolin-7-yl}-3-fluoropiperidin-1-yl)cyclopentan-1-ol]: the “LRRK2 pIC50” value was over 9.20.

For the compound `Cc1c(Nc2ncc3cc(Cl)c([C@@H]4CCN([C@@H]5COC[C@@H]5O)C[C@H]4F)cc3n2)cnn1C12CC(C1)C2` (single isomer, unassigned) [Ex-4.161, (3S,4S)(3S,4S) or (3S,4S)(3R,4R) or (3R,4R)(3S,4S) or (3R,4R)(3R,4R) 4-[4-(2-{[1-(bicyclo[1.1.1]pentan-1-yl)-5-methyl-1H-pyrazol-4-yl]amino}-6-chloroquinazolin-7-yl)-3-fluoropiperidin-1-yl]oxolan-3-ol], the “LRRK2 pIC50” value is 8.92.
